The values below come from patent publication US6673574B2, “Oral delivery of peptides using enzyme-cleavable membrane translocators” (Unigene Laboratories Inc., priority 2000, dated 2004).

Like-named read-outs stand apart in the source and are kept apart here.

Series [1] is described as follows: Blood levels of salmon calcitonin after direct injection into duodenum, ileum or colon of rats. It is filed as in vivo. The note with it: rat, other: injected directly into the duodenum, active components injected directly into duodenum. The source says:
The acid is believed to lower the local intestinal pH (where the active agent has been released) to levels below the optimal range for many intestinal proteases and other intestinal enzymes. This decrease in pH reduces the proteolytic activity of the intestinal proteases, thus affording protection to the peptide and the membrane translocator from potential degradation. The activity of these proteases is diminished by the temporarily acidic environment provided by the invention. It is preferred that sufficient acid be provided that local intestinal pH is lowered temporarily to 5.5 or below, preferably 4.7 or below and more preferably 3.5 or below. The sodium bicarbonate test described below (in the section captioned “the pH-Lowering Agent”) is indicative of the required acid amount.

The conditions of series [2]: cited from earlier work.
Series [3] in a line: Absorption from rat duodenum: intraduodenal injection, plasma concentration by competitive enzyme immunoassay. It is filed as in vivo. The note with it: for Cmax: peak plasma concentration by inspection. How it is done: Female Sprague-Dawley rats (250-275 g) (n=4 for each peptide) were anesthetized with ketamine and xylazine prior to the insertion of a cannula in the carotid artery. The cannula was fitted to a three way valve through which blood was sampled and replaced with physiological saline containing heparin. A midline incision was made in the abdominal cavity, and 0.45 mL of either sCT-gly (10 mg/mL) or OmpA-MT3-sCT-gly (10 mg/mL) in 0.5M citric acid was injected directly into the duodenum. Blood (0.5 ml) was collected before and at 5, 15, 30, 45 and 60 minutes after administration of the peptides. The blood was centrifuged, and the concentration (± SEM [standard error of the mean]) of sCT-gly or OmpA-MT3-sCT-gly in the plasma supernatant was determined by a competitive enzyme immunoassay (EIA). Peak plasma concentration (Cmax) was determined by inspection. The absolute bioavailbilty of each peptide (relative to an intravenous dose of sCT [salmon calcitonin]) was calculated from plots of the plasma concentration of each peptide as a function to time.

[4] abbreviates: 0 min (before administration), 0.45 mL of 10 mg/mL in 0.5M citric acid into duodenum, ± SEM, n=4.

As to `CC(C)C[C@H](NC(=O)[C@H](CCCCN)NC(=O)CNC(=O)[C@H](CC(C)C)NC(=O)[C@@H](NC(=O)[C@@H]1CSSC[C@H](N)C(=O)N[C@@H](CO)C(=O)N[C@@H](CC(N)=O)C(=O)N[C@@H](CC(C)C)C(=O)N[C@@H](CO)C(=O)N[C@@H]([C@@H](C)O)C(=O)N1)C(C)C)C(=O)N[C@@H](CO)C(=O)N[C@@H](CCC(N)=O)C(=O)N[C@@H](CCC(=O)O)C(=O)N[C@@H](CC(C)C)C(=O)N[C@@H](Cc1c[nH]cn1)C(=O)N[C@@H](CCCCN)C(=O)N[C@@H](CC(C)C)C(=O)N[C@@H](CCC(N)=O)C(=O)N[C@H](C(=O)N[C@@H](Cc1ccc(O)cc1)C(=O)N1CCC[C@H]1C(=O)N[C@@H](CCCNC(=N)N)C(=O)N[C@H](C(=O)N[C@@H](CC(N)=O)C(=O)N[C@H](C(=O)NCC(=O)N[C@@H](CO)C(=O)NCC(=O)N[C@H](C(=O)N1CCC[C@H]1C(N)=O)[C@@H](C)O)[C@@H](C)O)[C@@H](C)O)[C@@H](C)O` [salmon calcitonin], the Tmax in series [1] lay within 5 to 15 min. Moreover, the “blood levels more than two hours after injection” value in series [2] (conventional dosages) was “no detectable blood levels”. In series [2] (patients), the “peak level at which some patients report gastrointestinal distress” value is listed as ≥ 200 picograms per milliliter. For the same molecule, the half-life in series [2] (subcutaneous administration in man) is 20 to 40 min. Also, in series [2] (subcutaneous, 100 International units), the peak serum concentration result was “about 250 picograms per milliliter”.

Take `CC(C)C[C@H](NC(=O)[C@H](CCCCN)NC(=O)CNC(=O)[C@H](CC(C)C)NC(=O)[C@@H](NC(=O)[C@@H]1CSSC[C@H](N)C(=O)N[C@@H](CO)C(=O)N[C@@H](CC(N)=O)C(=O)N[C@@H](CC(C)C)C(=O)N[C@@H](CO)C(=O)N[C@@H]([C@@H](C)O)C(=O)N1)C(C)C)C(=O)N[C@@H](CO)C(=O)N[C@@H](CCC(N)=O)C(=O)N[C@@H](CCC(=O)O)C(=O)N[C@@H](CC(C)C)C(=O)N[C@@H](Cc1c[nH]cn1)C(=O)N[C@@H](CCCCN)C(=O)N[C@@H](CC(C)C)C(=O)N[C@@H](CCC(N)=O)C(=O)N[C@H](C(=O)N[C@@H](Cc1ccc(O)cc1)C(=O)N1CCC[C@H]1C(=O)N[C@@H](CCCNC(=N)N)C(=O)N[C@H](C(=O)N[C@@H](CC(N)=O)C(=O)N[C@H](C(=O)NCC(=O)N[C@@H](CO)C(=O)NCC(=O)N[C@H](C(=O)N1CCC[C@H]1C(=O)NCC(=O)O)[C@@H](C)O)[C@@H](C)O)[C@@H](C)O)[C@@H](C)O` [sCT-gly, CYS-SER-ASN-LEU-SER-THR-CYS-VAL-LEU-GLY-LYS-LEU-SER-GLN-GLU-LEU-HIS-LYS-LEU-GLN-THR-TYR-PRO-ARG-THR-ASN-THR-GLY-SER-GLY-THR-PRO-GLY]: the plasma concentration in series [3] (setting [4]) is listed as 0.00 ng/mL. Further, in series [3] (female, Sprague-Dawley, 4.5 mg, intraduodenal, rat, ± SEM, read-out: Cmax), the Cmax was found to be 223 ± 44.8 ng/mL. Besides, in series [3] (female, Sprague-Dawley, plasma, other: injected directly into the duodenum (intraduodenal), 4.5 mg, relative to an intravenous dose of sCT, intraduodenal, rat, ± SEM, read-out: Absolute bioavailability), the bioavailability amounted to 0.92 ± 0.23%. In series [3] (female, Sprague-Dawley, rat, plasma, 4.5 mg per animal, 5 min after intraduodenal injection, ± SEM, n=4), this molecule returned a level at 5 min of 201 ± 73.7 ng/mL. The same molecule had a level at 0.25 h in series [3] (female, Sprague-Dawley, rat, plasma, 4.5 mg per animal, 15 min after intraduodenal injection, ± SEM, n=4) of 116 ± 39.1 ng/mL. Moreover, the level at 0.5 h in series [3] (female, Sprague-Dawley, rat, plasma, 4.5 mg per animal, 30 min after intraduodenal injection, ± SEM, n=4) was 223 ± 44.8 ng/mL. The level at 0.75 h in series [3] (female, Sprague-Dawley, rat, plasma, 4.5 mg per animal, 45 min after intraduodenal injection, ± SEM, n=4) is 151 ± 107 ng/mL. This molecule returned a level at 1 h in series [3] (female, Sprague-Dawley, rat, plasma, 4.5 mg per animal, 60 min after intraduodenal injection, ± SEM, n=4) of 179 ± 76.2 ng/mL.

B1: OmpA-MT3-sCT-gly: salmon calcitonin-Gly fused to two MTs, the unprocessed OmpA signal peptide and MTS3 (HIV TAT domain), with TRP-VAL-ALA cleavable sequence (protein)
chain: MKKTAIAIAVALAGFATVAQAYGRKKRRQRRRWVACSNLSTCVLGKLSQELHKLQTYPRTNTGSGTPG
modifications: ends and bridges not checked
As for B1, the plasma concentration in series [3] (setting [4]) is given as 0.00 ng/mL; in series [3] (5 min after intraduodenal injection, ± SEM, n=4), 563.07 ± 150.44 ng/mL; in series [3] (15 min after intraduodenal injection, ± SEM, n=4), 1861.86 ± 713.20 ng/mL; in series [3] (30 min after intraduodenal injection, ± SEM, n=4), 5603.76 ± 1749.75 ng/mL; in series [3] (45 min after intraduodenal injection, ± SEM, n=4), 3879.76 ± 713.62 ng/mL; in series [3] (60 min after intraduodenal injection, ± SEM, n=4), 6060.70 ± 2462.69 ng/mL. In addition, the “Cmax relative to that of sCT-gly” value in series [3] (intraduodenal, rat) is “more than 25 fold”. In series [3] (intraduodenal, rat, ± SEM), this molecule showed a Cmax of 6060.70 ± 2462.69 ng/mL. Moreover, the Absolute bioavailability in series [3] (relative to an intravenous dose of sCT, intraduodenal, rat, ± SEM) was determined as 21.26 ± 6.23%.

Broadly, the Tmax is the time at which the peak concentration occurs. As usually defined, the half-life is the time needed for the level to fall by half in the phase considered. In general, Cmax refers to the peak of the concentration-time curve. For orientation: bioavailability means dose-corrected exposure relative to a reference, in per cent.
